The text below walks through data of patent US4389403A, “1-Aroyl-2-phenylamino-2-imidazolines, drugs containing these compounds, and use thereof” (BASF Aktiengesellschaft, priority 1980, dated 1983).

The conditions of series [1]: German Published Application DAS No. 2,559,711; cited from earlier work.
The conditions of series [2]: compared with clonidine; DAS No. 2,559,711; cited from earlier work.
Series [3] relates to spontaneously hypertonic Okamoto rats (SH rats). The experiment in a line: Anti-hypertensive action, systolic blood pressure in spontaneously hypertonic rats, oral. The series is classed as in vivo, rat (male spontaneously hypertonic Okamoto rats). The settings on record: oral administration; for ED20: Rattus norvegicus, dose lowering systolic pressure by 20%, 2 h after administration, read-out: Anti-hypertensive effect ED 20%; for Anti-hypertensive effect R.E. (relative effectiveness): relative to clonidine = 1.00. Here is the method:
The compounds are administered orally to groups of 4-8 male spontaneously hypertonic Okamoto rats (SH rats). Before, and two hours after, the administration, the systolic blood pressure is measured on the tail of the rat by means of a piezoelectric sensor.
The ED 20% is determined, from the dose-effect relationship and taking into account the values found with untreated control animals, as the dose which lowers the systolic pressure by 20%.

The conditions of series [4]: DAS No. 2,559,711; cited from earlier work.
The subject of series [5] is chloral hydrate narcosis in Sprague-Dawley rats. In words: Narcosis-prolonging action in rats (chloral hydrate narcosis), sedative action. The settings on record: for Narcosis-prolonging effect R.E. (relative effectiveness): rats, oral administration, relative to clonidine = 1.00.
Procedure: (§1) The time at which the righting reflex ceases to function is measured.
(§2) The reference substances were the conventional anti-hypertensive agents clonidine and benclonidine.
(§3) An undesired side-effect of clonidine is the central-suppressive (sedative) action, which was tested using, as a model, the prolongation of chloral hydrate narcosis.
Assay in series [6]: as above
Procedure: as §1, §2, §3
The settings on record: rat, in vivo, po.

A further series is described as follows: Acute toxicity (LD 50). The settings on record: rat, in vivo, po. The protocol:
To determine the acute toxicity (LD 50), the compounds are administered orally to groups of 10 male Sprague-Dawley rats each weighing 150-320 g. The period of observation is 1 week.

`O=C(c1ccccc1)N1CCN=C1Nc1c(Cl)cccc1Cl` [Benclonidine, 1-benzoyl-2-(2',6'-dichlorophenylamino)-2-imidazoline]: the “blood pressure-reducing properties” value in series [1] was “exhibits blood pressure-reducing properties”. Also, the “sedative side-effects” value in series [2] is given as “lesser sedative side-effects than the parent compound clonidine”. In addition, in series [3], the ED20 amounted to 0.836 mg/kg and the “Anti-hypertensive effect R.E. (relative effectiveness)” value is 0.10. Also, the “absorption on oral administration” value in series [4] is reported as “efficiently absorbed on oral administration”. Also, the “Narcosis-prolonging effect R.E. (relative effectiveness)” value in series [5] turned out to be 0.06. Besides, in series [6], the ED50 (in general, the dose that gives a 50% effect, or the effect in half of the subjects) came out at 0.948 mg/kg and the selectivity ratio is 1.13. The LD50 (as a rule, the dose at which mortality reaches 50%) at 168 h in the series “Acute toxicity (LD 50)” was 68.1 mg/kg.
Take `Clc1cccc(Cl)c1NC1=NCCN1` [Clonidine, 2-(2',6'-dichlorophenylamino)-2-imidazoline]: the “blood pressure-reducing properties” value in series [1] was “exhibits blood pressure-reducing properties”. For the same compound, in series [3], the ED20 was 0.0829 mg/kg and the “Anti-hypertensive effect R.E. (relative effectiveness)” value is 1.00. In addition, in series [5], the “Narcosis-prolonging effect R.E. (relative effectiveness)” value was 1.00. Also, in series [6], the ED50 is 0.0565 mg/kg and the selectivity ratio is 0.68. This compound also gave a median lethal dose (LD50) at 168 h in the series “Acute toxicity (LD 50)” of 67.3 mg/kg.
`O=C(c1ccc2ccccc2n1)N1CCN=C1Nc1c(Cl)cccc1Cl` [Example 45, 1-(quinolin-2-oyl)-2-(2',6'-dichlorophenylamino)-2-imidazoline]: in series [3], the ED20 was 0.0856 mg/kg and the “Anti-hypertensive effect R.E. (relative effectiveness)” value stood at 0.97. Also, the “ratio of sedative to anti-hypertensive doses compared with clonidine or benclonidine” value in series [5] (compared with clonidine or benclonidine) is listed as “substantially more advantageous”. In addition, in series [5], the “Narcosis-prolonging effect R.E. (relative effectiveness)” value turned out to be 0.12. Moreover, in series [6], the ED50 was determined as 0.464 mg/kg and the selectivity ratio is 5.42. The median lethal dose (LD50) at 168 h in “Acute toxicity (LD 50)” is 44 mg/kg.
Regarding `O=C(c1cccnc1)N1CCN=C1Nc1c(Cl)cccc1Cl` [Example 1, 1-nicotinoyl-2-(2',6'-dichlorophenylamino)-2-imidazoline], in series [3], the ED20 turned out to be 0.0786 mg/kg and the “Anti-hypertensive effect R.E. (relative effectiveness)” value is 1.05. Besides, the “Narcosis-prolonging effect R.E. (relative effectiveness)” value in series [5] was determined as 0.57. For the same compound, in series [6], it took a dose of 0.1 mg/kg to reach the 50% effect level (ED50) and the selectivity ratio was 1.27. The same compound displayed an LD50 at 168 h in “Acute toxicity (LD 50)” of 80 mg/kg.
